Source: US20260262643A1, “HERBICIDAL BENZOXAZINES” (FMC CORPORATION, priority 2022, published 2026)

How the values were obtained:
[1] = system: ducksalad; experiment: Test D flooded paddy test; assay type: in vivo, Heteranthera limosa; conditions: 250 g ai/ha, applied to paddy water, visual rating after 13 to 14 days, scale 0 to 100 (0 no effect, 100 complete control)
How it was run: (§1)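 Seedlings reached the 2-leaf stage, then pots were flooded to 3 cm over the soil surface. Compound was applied into the water, depth was maintained, and plants stayed in the greenhouse 13 to 14 days before visual scoring (0–100) relative to controls.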

[2] = system: wheat; experiment: Test C postemergence; assay type: in vivo, Triticum aestivum; conditions: 10 days, 0 to 100 scale (0 no effect, 100 complete control)
How it was run: (§2)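 Soil-applied (pre) and foliar (post, 1–2 leaf, 2–10 cm) sprays; surfactant-containing non-phytotoxic solvent vehicle; loam/sand substrate. Readout: visual % control at 10 d, greenhouse, versus untreated.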

[3] = system: galium; experiment: Test C postemergence; assay type: in vivo, Galium aparine; conditions: 10 days, 0 to 100 scale (0 no effect, 100 complete control)
How it was run: as §2

[4] = system: corn; experiment: Test C postemergence; assay type: in vivo, Zea mays; conditions: 10 days, 0 to 100 scale (0 no effect, 100 complete control)
How it was run: as §2

[5] = system: soybean; experiment: Test C preemergence; assay type: in vivo, Glycine max
How it was run: as §2

[6] = system: green foxtail; experiment: Test C postemergence; assay type: in vivo, Setaria viridis; conditions: 10 days, 0 to 100 scale (0 no effect, 100 complete control)
How it was run: as §2

[7] = system: barnyardgrass; experiment: Test C preemergence; assay type: in vivo, Echinochloa crusgalli
How it was run: as §2

[8] = system: oat, wild; experiment: Test C postemergence; assay type: in vivo, Avena fatua; conditions: 10 days, 0 to 100 scale (0 no effect, 100 complete control)
How it was run: as §2

[9] = system: ragweed; experiment: Test C preemergence; assay type: in vivo, Ambrosia artemisiifolia
How it was run: as §2

[10] = system: blackgrass; experiment: Test C preemergence; assay type: in vivo, Alopecurus myosuroides
How it was run: as §2

[11] = system: ragweed; experiment: Test C postemergence; assay type: in vivo, Ambrosia artemisiifolia; conditions: 10 days, 0 to 100 scale (0 no effect, 100 complete control)
How it was run: as §2

[12] = system: green foxtail; experiment: Test C preemergence; assay type: in vivo, Setaria viridis
How it was run: as §2

[13] = system: wheat; experiment: Test C preemergence; assay type: in vivo, Triticum aestivum
How it was run: as §2

[14] = system: pigweed, palmer; experiment: Test C preemergence; assay type: in vivo, Amaranthus palmeri
How it was run: as §2

[15] = system: kochia; experiment: Test C preemergence; assay type: in vivo, Bassia scoparia
How it was run: as §2

[16] = system: barnyardgrass; experiment: Test C postemergence; assay type: in vivo, Echinochloa crusgalli; conditions: 10 days, 0 to 100 scale (0 no effect, 100 complete control)
How it was run: as §2

[17] = system: horseweed; experiment: Test C postemergence; assay type: in vivo, Erigeron canadensis; conditions: 10 days, 0 to 100 scale (0 no effect, 100 complete control)
How it was run: as §2

[18] = system: ryegrass, Italian; experiment: Test C preemergence; assay type: in vivo, Lolium multiflorum
How it was run: as §2

[19] = system: barnyardgrass; experiment: Test D flooded paddy test; assay type: in vivo, Echinochloa crus-galli; conditions: 250 g ai/ha, applied to paddy water, visual rating after 13 to 14 days, scale 0 to 100 (0 no effect, 100 complete control)
How it was run: as §1

[20] = system: kochia; experiment: Test C postemergence; assay type: in vivo, Bassia scoparia; conditions: 10 days, 0 to 100 scale (0 no effect, 100 complete control)
How it was run: as §2

[21] = system: blackgrass; experiment: Test C postemergence; assay type: in vivo, Alopecurus myosuroides; conditions: 10 days, 0 to 100 scale (0 no effect, 100 complete control)
How it was run: as §2

[22] = system: sedge, umbrella; experiment: Test D flooded paddy test; assay type: in vivo, Cyperus difformis; conditions: 250 g ai/ha, applied to paddy water, visual rating after 13 to 14 days, scale 0 to 100 (0 no effect, 100 complete control)
How it was run: as §1

[23] = system: corn; experiment: Test C preemergence; assay type: in vivo, Zea mays
How it was run: as §2

[24] = system: pigweed, palmer; experiment: Test C postemergence; assay type: in vivo, Amaranthus palmeri; conditions: 10 days, 0 to 100 scale (0 no effect, 100 complete control)
How it was run: as §2

[25] = system: soybean; experiment: Test C postemergence; assay type: in vivo, Glycine max; conditions: 10 days, 0 to 100 scale (0 no effect, 100 complete control)
How it was run: as §2

[26] = system: rice; experiment: Test D flooded paddy test; assay type: in vivo, Oryza sativa; conditions: 250 g ai/ha, applied to paddy water, visual rating after 13 to 14 days, scale 0 to 100 (0 no effect, 100 complete control)
How it was run: as §1

[27] = system: ryegrass, Italian; experiment: Test C postemergence; assay type: in vivo, Lolium multiflorum; conditions: 10 days, 0 to 100 scale (0 no effect, 100 complete control)
How it was run: as §2

[28] = system: oat, wild; experiment: Test C preemergence; assay type: in vivo, Avena fatua
How it was run: as §2

[29] = 500 g ai/ha, preemergence, 0 to 100 scale (0 no effect, 100 complete control)
[30] = Preemergence, 125 g ai/ha, 0 to 100 scale, 0 no effect, 100 complete control

For COC(C)(C)c1ncn(-c2ccc(C)c(C(=O)N3C[C@H](C)Oc4c(Cl)cccc43)c2)n1 [Compound 343], which “Plant response rating, Ducksalad (Flood)” value [1] is on record?
The value was 45.

And the “Plant response rating, Wheat” value ([2]; 500 g ai/ha, postemergence)?
Its value is 60.

And the “Plant response rating, Wheat” value ([2]; Postemergence, 125 g ai/ha)?
The value was 20.

And the “Plant response rating, Galium” value ([3]; 500 g ai/ha, postemergence)?
Its value is 100.

What about the “Plant response rating, Galium” value ([3]; Postemergence, 125 g ai/ha) of the same molecule?
The value was 100.

What about the “Plant response rating, Corn” value ([4]; 500 g ai/ha, postemergence) of the same molecule?
Its value is 100.

And the “Plant response rating, Corn” value ([4]; Postemergence, 125 g ai/ha)?
Its value is 90.

And the “Soybean plant response rating” value [5, 29]?
Its value is 100.

What about the “Plant response rating, Soybean” value [5, 30] of the same molecule?
The value was 30.

What about the “Plant response rating, Foxtail, Green” value ([6]; 500 g ai/ha, postemergence) of the same molecule?
Its value is 90.

And the “Plant response rating, Foxtail, Green” value ([6]; Postemergence, 125 g ai/ha)?
Its value is 50.

And the “Barnyardgrass plant response rating” value [7, 29]?
The value was 100.

And the “Plant response rating, Barnyardgrass” value [7, 30]?
Its value is 100.

What about the “Plant response rating, Oat, Wild” value ([8]; 500 g ai/ha, postemergence) of the same molecule?
The value was 90.

What about the “Plant response rating, Oat, Wild” value ([8]; Postemergence, 125 g ai/ha) of the same molecule?
Its value is 60.

And the “Ragweed plant response rating” value [9, 29]?
Its value is 70.

What about the “Plant response rating, Ragweed” value [9, 30] of the same molecule?
The value was 30.

What about the “Blackgrass plant response rating” value [10, 29] of the same molecule?
Its value is 90.

What about the “Plant response rating, Blackgrass” value [10, 30] of the same molecule?
Its value is 50.

What about the “Plant response rating, Ragweed” value ([11]; 500 g ai/ha, postemergence) of the same molecule?
The value was 80.

What about the “Plant response rating, Ragweed” value ([11]; Postemergence, 125 g ai/ha) of the same molecule?
Its value is 60.

And the “Foxtail, Green plant response rating” value [12, 29]?
Its value is 100.

What about the “Plant response rating, Foxtail, Green” value [12, 30] of the same molecule?
The value was 100.

And the “Wheat plant response rating” value [13, 29]?
Its value is 90.

And the “Plant response rating, Wheat” value [13, 30]?
Its value is 30.

And the “Pigweed, Palmer plant response rating” value [14, 29]?
The value was 100.

And the “Plant response rating, Pigweed, Palmer” value [14, 30]?
The value was 100.

What about the “Kochia plant response rating” value [15, 29] of the same molecule?
Its value is 100.

What about the “Plant response rating, Kochia” value [15, 30] of the same molecule?
The value was 90.

What about the “Plant response rating, Barnyardgrass” value ([16]; 500 g ai/ha, postemergence) of the same molecule?
Its value is 70.

What about the “Plant response rating, Barnyardgrass” value ([16]; Postemergence, 125 g ai/ha) of the same molecule?
Its value is 20.

And the “Plant response rating, Horseweed” value ([17]; 500 g ai/ha, postemergence)?
The value was 80.

What about the “Plant response rating, Horseweed” value ([17]; Postemergence, 125 g ai/ha) of the same molecule?
The value was 30.

And the “Ryegrass, Italian plant response rating” value [18, 29]?
Its value is 100.

What about the “Plant response rating, Ryegrass, Italian” value [18, 30] of the same molecule?
Its value is 100.

What about the “Plant response rating, Barnyardgrass (Flood)” value [19] of the same molecule?
The value was 35.

And the “Plant response rating, Kochia” value ([20]; 500 g ai/ha, postemergence)?
The value was 90.

And the “Plant response rating, Kochia” value ([20]; Postemergence, 125 g ai/ha)?
The value was 80.

And the “Plant response rating, Blackgrass” value ([21]; 500 g ai/ha, postemergence)?
The value was 90.

What about the “Plant response rating, Blackgrass” value ([21]; Postemergence, 125 g ai/ha) of the same molecule?
Its value is 40.

And the “Plant response rating, Sedge, Umbrella (Flood)” value [22]?
The value was 65.

What about the “Corn plant response rating” value [23, 29] of the same molecule?
Its value is 60.

And the “Plant response rating, Corn” value [23, 30]?
The value was 40.

What about the “Plant response rating, Pigweed, Palmer” value ([24]; 500 g ai/ha, postemergence) of the same molecule?
The value was 100.

What about the “Plant response rating, Pigweed, Palmer” value ([24]; Postemergence, 125 g ai/ha) of the same molecule?
Its value is 50.

And the “Plant response rating, Soybean” value ([25]; 500 g ai/ha, postemergence)?
The value was 100.

And the “Plant response rating, Soybean” value ([25]; Postemergence, 125 g ai/ha)?
The value was 100.

And the “Plant response rating, Rice (Flood)” value [26]?
Its value is 15.

What about the “Plant response rating, Ryegrass, Italian” value ([27]; 500 g ai/ha, postemergence) of the same molecule?
Its value is 90.

What about the “Plant response rating, Ryegrass, Italian” value ([27]; Postemergence, 125 g ai/ha) of the same molecule?
The value was 70.

And the “Oat, Wild plant response rating” value [28, 29]?
The value was 90.

And the “Plant response rating, Oat, Wild” value [28, 30]?
The value was 90.
